The record followed here is patent US20240299400A1, “Transcription Factor GLI1 Inhibitors and Uses Thereof” (University of Connecticut, priority 2023, published 2024).

Each structure is given as a SMILES string. Some results are limits rather than exact numbers.

One assay has as its system ASZ001 cells. The assay can be described thus: MTS anti-proliferative assay in ASZ001 cells. It counts as cell-based, murine. The note with it: Mus musculus, ASZ001, Ave ± SEM. How it is done:
Cell viability was assessed by MTS proliferation assay kit (Promega) per manufacturer's protocol. Briefly, 2×10^4 cells were plated in a 96-well plate in 100 μL growth medium to make the cell population at ˜80% confluence. After 24 h, 1 μL drug solution was added to each well. DMSO was used as vehicle compound. After 48 h incubation (37° C., 5% CO2), 20 μL of freshly prepared 3-(4,5-dimethylthiazol-2-yl)-5-(3-carboxymethoxyphenyl)-2-(4-sulfophenyl)-2H-tetrazolium (MTS)/phenazine methosulfate (PMS) solution was added to each well, and the plate was returned to the incubator for 1 h. Absorbance at 490 nm was recorded, and the result was analyzed by GraphPad Prism 5. GI50 values represent mean±SEM for at least two separate experiments performed in triplicate.
A general note: Tetrazolium assays rely on reduction of a dye to a coloured formazan, in cell work by metabolically active cells.

The subject of assay [1] is GLI1 mRNA expression. The assay can be described thus: RT-qPCR GLI1 mRNA expression in Sufu-KO MEFs. It counts as cell-based, mouse. The note with it: Mus musculus, Ave ± SEM, read-out: RT-qPCR, IC50 Sufu-KO. How it is done: (§1) ASZ001 and Sufu-KO cells were seeded in 96-well plates (10,000/well, 100 μL) and incubated overnight under growth conditions. On the second day, ‘growth’ media was removed and replaced by ‘assay’ media (100 μL). On the third day, cells were treated with a serial dilution of drugs or DMSO for 48 h. mRNA expression was determined through Taqman Fast Cells-to-CT Kit (#4399003) per the manufacturer's instructions. In brief, cells were washed with chilled PBS, then mixed with lysis solution containing DNase I and incubated at RT for 5 min. Stop solution was then added to quench the lysis reagents. cDNA was then synthesized through a BioRad MyCycler following addition of reverse transcriptase. Finally, the cDNA was amplified through an ABI 7500 system following addition of Taqman Fast Universal PCR Master Mix and Taqman Gene Expression Primer. Relative gene expression levels were computed by the ΔΔCt method. Values represent mRNA expression relative to DMSO control (set at 1.0). Data were analyzed using GraphPad Prism, and IC50 values are the mean±SEM for at least two separate experiments performed in triplicate. Primers used are as follows: mouse ActB (Mm00607939_s1); mouse GLI1 (Mm00494645_ml); mouse Gli2 (Mm01293117_ml); mouse Ptch1 (Mm00436026_ml); mouse Hhip (Mm00469580_ml).
(Quantitative PCR measures a nucleic acid by following its amplification.)

The test system of assay [2] is GLI1 mRNA expression. The assay can be described thus: RT-qPCR GLI1 mRNA expression in ASZ001 BCC cells. Format: cell-based, mouse. The note with it: Mus musculus, Ave ± SEM, read-out: RT-qPCR, IC50 ASZ001. How it is done:
as §1

With `CCN(CC)c1ccc(C(Nc2cccnc2)c2ccc3ccc(C)nc3c2O)cc1` (stereo not drawn) [Compound 30, 7-((4-(diethylamino)phenyl)(pyridin-3-ylamino)methyl)-2-methylquinolin-8-ol], growth with ASZ001 cells (Table 6, 48 h) was halved (GI50) at 81.4 ± 10.7 µM. Moreover, the IC50 (commonly the midpoint of a concentration-inhibition curve) in the assay with GLI1 mRNA expression [1] (Table 6, GLI1 mRNA) is 4.4 ± 1.9 µM; with GLI1 mRNA expression [2] (ASZ001, Table 6, GLI1 mRNA), 2.5 ± 0.8 µM.
In the case of `CCN(CC)c1ccc(C(Nc2ccccn2)c2ccc3ccc(C)nc3c2OCc2cccc(OC)c2)cc1` (stereo not drawn) [Compound 25, N-((4-Diethylaminophenyl)(8-(3-methoxybenzyloxy)-2-methylquinolin-7-yl)methyl)pyridin-2-amine], the GI50 – broadly, the concentration giving 50% growth inhibition – in the assay with ASZ001 cells (Table 5, 48 h) was above 100 µM. Also, the IC50 in the assay on GLI1 mRNA expression [1] (Table 5, GLI1 mRNA) was above 25 µM; with GLI1 mRNA expression [2] (ASZ001, Table 5, GLI1 mRNA), 1.3 ± 0.4 µM.
In the assay on ASZ001 cells (Table 6, 48 h), `CCN(CC)c1ccc(C(NC)c2cc(C)c3ccc(C)nc3c2O)cc1` (stereo not drawn) [Compound 29, 7-((4-(Diethylamino)phenyl)(methylamino)methyl)-2,5-dimethylquinolin-8-ol] registered a GI50 above 100 µM. Moreover, the IC50 is above 25 µM in the assay with GLI1 mRNA expression [1] (Table 6, GLI1 mRNA) and 15.4 ± 2.2 µM with GLI1 mRNA expression [2] (ASZ001, Table 6, GLI1 mRNA).
As to `CCN(CC)c1ccc(C(Nc2ccccn2)c2ccc3ccccc3c2O)cc1` (stereo not drawn) [Compound 17, 2-((4-Diethylaminophenyl)(pyridin-2-ylamino)methyl)naphthalen-1-ol], the GI50 in the assay on ASZ001 cells (Table 5, 48 h) was above 100 µM. Besides, the IC50 is above 25 µM with GLI1 mRNA expression [1] (Table 5, GLI1 mRNA) and 9.9 ± 1.4 µM in the assay on GLI1 mRNA expression [2] (ASZ001, Table 5, GLI1 mRNA).
The compound `C#CCCOc1c(C(Nc2ccccn2)c2ccc(N(CC)CC)cc2)ccc2ccc(C)nc12` (stereo not drawn) [Compound 23, N-((4-Diethylaminophenyl)(8-(but-3-yn-1-yloxy)-2-methylquinolin-7-yl)methyl)pyridin-2-amine] registered a GI50 in the assay on ASZ001 cells (Table 5, 48 h) above 100 µM. Also, the IC50 with GLI1 mRNA expression [1] (Table 5, GLI1 mRNA) was above 25 µM; in the assay with GLI1 mRNA expression [2] (ASZ001, Table 5, GLI1 mRNA), 1.9 ± 0.5 µM.
The corresponding values for `CCN(CC)c1ccc(C(Nc2ccccn2)c2cc(C)c3ccc(C)nc3c2O)cc1` (stereo not drawn) [Compound 16, 7-((4-Diethylaminophenyl)(pyridin-2-ylamino)methyl)-2,5-dimethylquinolin-8-ol] are 15.7 ± 2.8 µM, 0.98 ± 0.21 µM and 1.6 ± 0.7 µM.
`CCN(CC)c1cccc(C(Nc2ccccn2)c2ccc3ccc(C)nc3c2O)c1` (stereo not drawn) [Compound 36, 7-((3-Diethylaminophenyl)(pyridin-2-ylamino)methyl)-2-methylquinolin-8-ol]: in the assay on ASZ001 cells (Table 7, 48 h), growth was halved (GI50) at 82.5 ± 20.3 µM. The IC50 turned out to be 5.6 ± 1.5 µM with GLI1 mRNA expression [1] (Table 7, GLI1 mRNA) and 15.1 ± 4.1 µM in the assay with GLI1 mRNA expression [2] (ASZ001, Table 7, GLI1 mRNA).
The corresponding values for `Cc1ccc2ccc(C(Nc3ccccn3)c3ccc(-n4ccnc4C)cc3)c(O)c2n1` (stereo not drawn) [Compound 51, 7-((4-(2-Methyl-1H-imidazol-1-yl)phenyl)(pyridin-2-ylamino)methyl)-2-methylquinolin-8-ol] are above 100 µM, 13.6 ± 3.5 µM and 5.3 ± 1.2 µM.
On to `CCN(CC)c1ccc(C(Nc2ccccn2)c2ccc3ccc(C)nc3c2OC(C)C)cc1` (stereo not drawn) [Compound 21, N-((4-Diethylaminophenyl)(8-isopropoxy-2-methylquinolin-7-yl)methyl)pyridin-2-amine], for which, in the assay on ASZ001 cells (Table 5, 48 h), the GI50 is above 100 µM. In addition, the IC50 in the assay on GLI1 mRNA expression [1] (Table 5, GLI1 mRNA) is above 25 µM; with GLI1 mRNA expression [2] (ASZ001, Table 5, GLI1 mRNA), 0.84 ± 0.06 µM.
Regarding `Cc1ccc2c(C)cc(C(C)Nc3ccccn3)c(O)c2n1` (stereo not drawn) [Compound 32, 2,5-Dimethyl-7-(1-(pyridin-2-ylamino)ethyl)quinolin-8-ol], in the assay on ASZ001 cells (Table 7, 48 h), halving of growth (GI50) required 29.8 ± 4 µM. For the same compound, the IC50 came out at 4.8 ± 1.4 µM in the assay on GLI1 mRNA expression [1] (Table 7, GLI1 mRNA) and 5.3 ± 1.7 µM in the assay with GLI1 mRNA expression [2] (ASZ001, Table 7, GLI1 mRNA).
In the assay on ASZ001 cells (Table 5, 48 h), `CCN(CC)c1ccc(C(Nc2ccccn2)c2ccc3ccc(C)nc3c2OCc2ccc(OC)cc2)cc1` (stereo not drawn) [Compound 26, N-((4-Diethylaminophenyl)(8-(4-methoxybenzyloxy)-2-methylquinolin-7-yl)methyl)pyridin-2-amine] showed a GI50 above 100 µM. Besides, the IC50 with GLI1 mRNA expression [1] (Table 5, GLI1 mRNA) is above 25 µM; with GLI1 mRNA expression [2] (ASZ001, Table 5, GLI1 mRNA), 1.2 ± 0.5 µM.
For `Cc1ccc2ccc(C(Nc3ccccn3)c3ccc(N)cc3)c(O)c2n1` (stereo not drawn) [Compound 41, 7-((4-Aminophenyl)(pyridin-2-ylamino)methyl)-2-methylquinolin-8-ol], the GI50 in the assay on ASZ001 cells (Table 7, 48 h) was above 100 µM. Besides, the IC50 with GLI1 mRNA expression [1] (Table 7, GLI1 mRNA) is 3.5 ± 1 µM; in the assay on GLI1 mRNA expression [2] (ASZ001, Table 7, GLI1 mRNA), 9.8 ± 1.3 µM.
